Measured values from US10537558B2 (Bantam Pharmaceutical, LLC, priority 2015, dated 2020).
Where two headings read alike, the source gives them in different places.

Tested on: BJAB cells
Assay: BJAB cell proliferation (Cell Titer Glo)
Format: cell-based
Procedure, shortened: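 BJAB cells exposed to serially diluted compounds (0.1% DMSO final) for about 72 h at 37 °C. Proliferation read by Cell Titer Glo luminescence as percent of untreated controls; EC50 from non-linear regression of dose-response data.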

| Structure (SMILES) | EC50 (Homo sapiens, read-out: EC50) | EC50 |
| --- | --- | --- |
| Cc1nn(-c2nc(-c3cncc(C#N)c3)c(SC(C)C)s2)c(C(=O)O)c1-c1cccc(F)c1 [Compound 210, 1-(4-(5-cyanopyridin-3-yl)-5-(isopropylthio)thiazol-2-yl)-4-(3-fluorophenyl)-3-methyl-1H-pyrazole-5-carboxylic acid] | > 40 µM | – |
| Cc1cc(-c2nc(-n3nc(C)c(-c4cccc(F)c4)c3C(=O)O)sc2SC(C)C)n(C)n1 [Compound 211, 1-(4-(1,3-dimethyl-1H-pyrazol-5-yl)-5-(isopropylthio)thiazol-2-yl)-4-(3-fluorophenyl)-3-methyl-1H-pyrazole-5-carboxylic acid] | > 40 µM | – |
| Cc1nn(-c2nc(-c3cncnc3)c(SC(C)C)s2)c(C(=O)O)c1-c1cccc(F)c1 [Compound 212, 4-(3-fluorophenyl)-1-(5-(isopropylthio)-4-(pyrimidin-5-yl)thiazol-2-yl)-3-methyl-1H-pyrazole-5-carboxylic Acid] | > 40 µM | – |
| Cc1nn(-c2nc(-c3ccc(C#N)cc3)c(SC(C)C)s2)c(C(=O)O)c1-c1cccc(F)c1 [Compound 213, 1-(4-(4-cyanophenyl)-5-(isopropylthio)thiazol-2-yl)-4-(3-fluorophenyl)-3-methyl-1H-pyrazole-5-carboxylic acid] | – | C- |
| Cc1ccc(-c2nc(-n3nc(C)c(-c4cccc(F)c4)c3C(=O)O)sc2SC(C)C)cc1F [Compound 214, 1-(4-(3-fluoro-4-methylphenyl)-5-(isopropylthio)thiazol-2-yl)-4-(3-fluorophenyl)-3-methyl-1H-pyrazole-5-carboxylic acid] | 1 to 5 µM | – |
| Cc1nn(-c2nc(-c3ccccc3C#N)c(SC(C)C)s2)c(C(=O)O)c1-c1cccc(F)c1 [Compound 215, 1-(4-(2-cyanophenyl)-5-(isopropylthio)thiazol-2-yl)-4-(3-fluorophenyl)-3-methyl-1H-pyrazole-5-carboxylic acid] | 25 to 50 µM | – |
| Cc1cc(Cl)ccc1-c1nc(-n2nc(C)c(-c3cccc(F)c3)c2C(=O)O)sc1SC(C)C [Compound 216, 1-(4-(4-chloro-2-methylphenyl)-5-(isopropylthio)thiazol-2-yl)-4-(3-fluorophenyl)-3-methyl-1H-pyrazole-5-carboxylic acid] | < 1 µM | – |
| Cc1cc(C(F)(F)F)ccc1-c1nc(-n2nc(C)c(-c3cccc(F)c3)c2C(=O)O)sc1SC(C)C [Compound 217, 4-(3-fluorophenyl)-1-(5-(isopropylthio)-4-(2-methyl-4-(trifluoromethyl)phenyl)thiazol-2-yl)-3-methyl-1H-pyrazole-5-carboxylic acid] | < 1 µM | – |
| Cc1nn(-c2nc(-c3ccc(Cl)c(C#N)c3)c(SC(C)C)s2)c(C(=O)O)c1-c1cccc(F)c1 [Compound 218, 1-(4-(4-chloro-3-cyanophenyl)-5-(isopropylthio)thiazol-2-yl)-4-(3-fluorophenyl)-3-methyl-1H-pyrazole-5-carboxylic Acid] | 5 to 10 µM | – |
| Cc1nn(-c2nc(-c3ccc(C(F)(F)F)cc3)c(SC(C)C)s2)c(C(=O)O)c1-c1cc(Cl)cc(Cl)c1 [Compound 219, 4-(3,5-dichlorophenyl)-1-(5-(isopropylthio)-4-(4-(trifluoromethyl)phenyl)thiazol-2-yl)-3-methyl-1H-pyrazole-5-carboxylic Acid] | < 1 µM | – |
| COCCNC(=O)c1ccc(-c2nc(-n3nc(C)c(-c4cccc(F)c4)c3C(=O)O)sc2SC(C)C)cc1 [Compound 220, 4-(3-fluorophenyl)-1-(5-(isopropylthio)-4-(4-((2-methoxyethyl)carbamoyl)phenyl)thiazol-2-yl)-3-methyl-1H-pyrazole-5-carboxylic Acid] | > 40 µM | – |
| Cc1nn(-c2nc(-c3ccc(C(=O)N(C)C)cc3)c(SC(C)C)s2)c(C(=O)O)c1-c1cccc(F)c1 [Compound 221, 1-(4-(4-(dimethylcarbamoyl)phenyl)-5-(isopropylthio)thiazol-2-yl)-4-(3-fluorophenyl)-3-methyl-1H-pyrazole-5-carboxylic acid] | > 40 µM | – |
| Cc1cc(OC(F)(F)F)ccc1-c1nc(-n2nc(C)c(-c3cccc(F)c3)c2C(=O)O)sc1SC(C)C [Compound 224, 4-(3-fluorophenyl)-1-(5-(isopropylthio)-4-(2-methyl-4-(trifluoromethoxy)phenyl)thiazol-2-yl)-3-methyl-1H-pyrazole-5-carboxylic acid] | < 1 µM | – |
| Cc1nn(-c2nc(-c3ccc(Cl)c(Cl)c3)c(SC(C)C)s2)c(C(=O)O)c1-c1cc(F)cc(Cl)c1 [Compound 225, 4-(3-chloro-5-fluorophenyl)-1-(4-(3,4-dichlorophenyl)-5-(isopropylthio)thiazol-2-yl)-3-methyl-1H-pyrazole-5-carboxylic acid] | < 1 µM | – |
| Cc1cc(-c2nc(-n3nc(C)c(-c4cccc(F)c4)c3C(=O)O)sc2SC(C)C)ccc1C#N [Compound 226, 1-(4-(4-cyano-3-methylphenyl)-5-(isopropylthio)thiazol-2-yl)-4-(3-fluorophenyl)-3-methyl-1H-pyrazole-5-carboxylic acid] | 5 to 10 µM | – |
| Cc1nn(-c2nc(-c3ccc(Cl)c(Cl)c3)c(F)s2)c(C(=O)O)c1-c1cccc(F)c1 [Compound 227, 1-(4-(3,4-dichlorophenyl)-5-fluorothiazol-2-yl)-4-(3-fluorophenyl)-3-methyl-1H-pyrazole-5-carboxylic acid] | 10 to 25 µM | – |
| CC(C)Sc1sc(-n2nc(C(C)C)c(-c3cccc(F)c3)c2C(=O)O)nc1-c1ccc(Cl)c(Cl)c1 [Compound 228, 1-(4-(3,4-dichlorophenyl)-5-(isopropylthio)thiazol-2-yl)-4-(3-fluorophenyl)-3-isopropyl-1H-pyrazole-5-carboxylic Acid] | 1 to 5 µM | – |
| Cc1nn(-c2nc(-c3ccc(C(F)F)cc3)c(SC(C)C)s2)c(C(=O)O)c1-c1cccc(F)c1 [Compound 229, 1-(4-(4-(difluoromethyl)phenyl)-5-(isopropylthio)thiazol-2-yl)-4-(3-fluorophenyl)-3-methyl-1H-pyrazole-5-carboxylic acid] | 1 to 5 µM | – |
| Cc1nn(-c2nc(-c3ccc(Cl)c(Cl)c3)c(OC(C)C)s2)c(C(=O)O)c1-c1cccc(F)c1 [Compound 230, 1-(4-(3,4-dichlorophenyl)-5-isopropoxythiazol-2-yl)-4-(3-fluorophenyl)-3-methyl-1H-pyrazole-5-carboxylic acid] | 5 to 10 µM | – |
| CCc1ccc(-c2nc(-n3nc(C)c(-c4cccc(F)c4)c3C(=O)O)sc2SC(C)C)cc1 [Compound 231, 1-(4-(4-ethylphenyl)-5-(isopropylthio)thiazol-2-yl)-4-(3-fluorophenyl)-3-methyl-1H-pyrazole-5-carboxylic Acid] | 1 to 5 µM | – |
| Cc1cc(-c2c(C)nn(-c3nc(-c4ccc(C(F)(F)F)cc4)c(SC(C)C)s3)c2C)cc(C)n1 [Compound 232, 2-(4-(2,6-dimethylpyridin-4-yl)-3,5-dimethyl-1H-pyrazol-1-yl)-5-(isopropylthio)-4-(4-(trifluoromethyl)phenyl) thiazole] | 25 to 50 µM | – |
| Cc1nn(-c2nc(-c3cncc(F)c3)c(SC(C)C)s2)c(C(=O)O)c1-c1cccc(F)c1 [Compound 233, 4-(3-fluorophenyl)-1-(4-(5-fluoropyridin-3-yl)-5-(isopropylthio)thiazol-2-yl)-3-methyl-1H-pyrazole-5-carboxylic Acid] | > 40 µM | – |
| Cc1nn(-c2nc(-c3coc4ccccc34)c(SC(C)C)s2)c(C(=O)O)c1-c1cccc(F)c1 [Compound 234, 1-(4-(benzofuran-3-yl)-5-(isopropylthio)thiazol-2-yl)-4-(3-fluorophenyl)-3-methyl-1H-pyrazole-5-carboxylic Acid] | > 40 µM | – |
